Data: patent publication US20130197040A1, “POLYMORPHS OF DALFAMPRIDINE, PREPARATIONS AND USES THEREOF” (priority 2010, published 2013)

Experiments:
[1] = Stability on exposure to the air at room temperature for 12 months, purity by HPLC; type: physicochemical; settings: after exposure to the air at room temperature for 12 months
Experimental: (§1) The polymorphs of 4-aminopyridine or the polymorphs of the solvates thereof according to the present invention were exposed to the air at room temperature for 12 months, and then purities thereof were measured by using high performance liquid chromatography.
as §1, with “The above-mentioned eight” for “The”, “or” for “or the polymorphs”, “chromatography. The obtained purity results thereof were shown as follows:” for “chromatography.”
The purities were measured by using high performance liquid chromatography under the following conditions:
Chromatographic Column: Agilent extend-C18 (250*4.6 mm, 5 μ)
Mobile Phase: 0.01 mol/L of monopotassium phosphate solution containing 0.01 mol/L of sodium octanesulfonate (adjusted to pH 2.6 with phosphoric acid)-methanol (75:25);
Column Temperature: 40° C.;
Detection Wavelength: 264 nm;

[2] = system: multiple sclerosis patients; settings: injected in 11 patients with eyesight and motor function impaired because of multiple sclerosis, 1983; cited from earlier work
[3] = system: multiple sclerosis patients; settings: clinical trials (Phase III); cited from earlier work

Structure (SMILES)	Purity (%) [1]	also measured
Nc1ccncc1 [Polymorph I, 4-aminopyridine]	99.66%	–
Nc1ccncc1 [Polymorph II, 4-aminopyridine]	100%	–
Nc1ccncc1 [Polymorph III, 4-aminopyridine]	100%	–
Nc1ccncc1 [Polymorph IV, 4-aminopyridine]	100%	–
Nc1ccncc1 [Polymorph V, 4-aminopyridine]	100%	–
Nc1ccncc1 [Polymorph VI, 4-aminopyridine]	99.98%	–
Nc1ccncc1 [Polymorph VII, 4-aminopyridine]	100%	–
Nc1ccncc1 [Polymorph VIII, 4-aminopyridine]	100%	–
Nc1ccncc1 [dalfampridine, 4-aminopyridine]	–	eyesight [2]: improved; walking speed [2]: improved; walking speed versus placebo [3]: faster than that in patients who took a placebo
